Source: US9688668B2, “Long chain base sphingosine kinase inhibitors” (UNIVERSITY OF VIRGINIA PATENT FOUNDATION, priority 2012, dated 2017)
Like-named read-outs stand apart in the source and are kept apart here.

Biological target: recombinant SphK1 (Homo sapiens (Human), UniProt Q9NYA1)
Test: SphK1 scintillation proximity kinase assay
[1] = read-out: SphK1 (estimated Ki range), Estimated Ki values at recombinant SphK1

Sequence of recombinant SphK1 (Q9NYA1 whole entry): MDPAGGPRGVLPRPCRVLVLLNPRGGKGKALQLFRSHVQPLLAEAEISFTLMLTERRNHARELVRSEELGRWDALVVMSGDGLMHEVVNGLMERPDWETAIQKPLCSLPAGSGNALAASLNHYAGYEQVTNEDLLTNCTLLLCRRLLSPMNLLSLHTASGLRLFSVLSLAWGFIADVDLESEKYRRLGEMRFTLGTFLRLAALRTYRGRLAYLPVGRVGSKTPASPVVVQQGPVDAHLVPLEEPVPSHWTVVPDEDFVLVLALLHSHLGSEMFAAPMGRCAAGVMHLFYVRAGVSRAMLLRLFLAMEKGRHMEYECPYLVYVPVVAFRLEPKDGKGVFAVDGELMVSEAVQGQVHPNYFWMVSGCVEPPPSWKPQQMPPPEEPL

## CCCCCCc1ccc(-c2noc([C@@H]3CCCN3C(=N)N)n2)cc1 [Compound 56, (S)-2-(3-(4-hexylphenyl)-1,2,4-oxadiazol-5-yl)pyrrolidine-1-carboximidamide]
  Ki: > 10 µM

## CCCCCCCCCCCCc1noc(C[C@@H]2CCCN2C(=N)N)n1 [Compound 76, (S)-2-((3-dodecyl-1,2,4-oxadiazol-5-yl)methyl)pyrrolidine-1-carboximidamide]
[1]
  Ki: > 10 µM

## CCCCCCCCCCCCc1ccc(-c2coc(C(C)C(=N)N)n2)cc1 (centres unmarked) [Compound 18, 2-(4-(4-dodecylphenyl)oxazol-2-yl)propanimidamide]
[1]
  Ki: > 10 µM

## N=C(N)N1CCC[C@H]1c1nc(-c2ccc(I)cc2)no1 [Compound 37, (S)-2-(3-(4-iodophenyl)-1,2,4-oxadiazol-5-yl)pyrrolidine-1-carboximidamide]
[1]
  Ki: > 10 µM

## CCCCCCCCc1ccc(-c2noc(CN(C)C(=N)N)n2)cc1 [Compound 45, 1-methyl-1-((3-(4-octylphenyl)-1,2,4-oxadiazol-5-yl)methyl)guanidine]
[1]
  Ki: > 10 µM

## CCCCCCCCCCc1ccc(-c2noc([C@@H]3CCCN3C(=N)N)n2)cc1 [Compound 54, (S)-2-(3-(4-decylphenyl)-1,2,4-oxadiazol-5-yl)pyrrolidine-1-carboximidamide]
  Ki: 1 to 10 µM

## CCCCCCCCCCCCc1ccc(-c2noc([C@@H]3CCCN3C(=N)N)n2)cc1 [Compound 55, (S)-2-(3-(4-dodecylphenyl)-1,2,4-oxadiazol-5-yl)pyrrolidine-1-carboximidamide]
  Ki: > 10 µM

## CCCCCCCCCCCCc1ccc(NC(=O)C2(NC(=N)N)CC2)cc1 [Compound 36, N-(4-dodecylphenyl)-1-guanidinocyclopropane-carboxamide]
[1]
  Ki: > 10 µM

## CCCCCCCCCCCCC/C=C/CC(=N)N [Compound 4, (E)-heptadec-3-enimidamide]
[1]
  Ki: > 10 µM

## CCCCCCCCc1noc([C@@H]2CCCN2C(=N)N)n1 [Compound 39, (S)-2-(3-octyl-1,2,4-oxadiazol-5-yl)pyrrolidine-1-carboximidamide]
[1]
  Ki: > 10 µM

## CCCCCCCCc1ccc(C(=O)NCCOC(=N)N)cc1 [Compound 33, 2-(4-octylbenzamido)ethyl carbamimidate]
[1]
  Ki: > 10 µM

## CCCCCCCCCCCc1cc(-c2nnc(C3(C(=N)N)CC3)o2)ccc1OC [Compound 27, 1-(5-(4-methoxy-3-undecylphenyl)-1,3,4-oxadiazol-2-yl)cyclopropanecarboximidamide]
[1]
  Ki: < 1 µM

## CCCCCCCCCCCCc1ccc(-c2noc(CC(=N)N)n2)cc1 [Compound 12, 2-(3-(4-dodecylphenyl)-1,2,4-oxadiazol-5-yl)acetimidamide]
[1]
  Ki: > 10 µM

## CCCCCCCCc1ccc(-c2noc([C@H](C)NC(=N)N)n2)cc1 [Compound 47, (S)-1-(1-(3-(4-octylphenyl)-1,2,4-oxadiazol-5-yl)ethyl)guanidine]
  Ki: 1 to 10 µM

## N=C(N)N1CCC[C@H]1c1nc(-c2ccc(C#CC3CCCC3)cc2)no1 [Compound 38, (S)-2-(3-(4-(cyclopentylethynyl)phenyl)-1,2,4-oxadiazol-5-yl)pyrrolidine-1-carboximidamide]
[1]
  Ki: > 10 µM

## CCCCCCCCCCc1ccc(-c2noc([C@@H]3CCN3C(=N)N)n2)cc1 [Compound 63, (S)-2-(3-(4-decylphenyl)-1,2,4-oxadiazol-5-yl)azetidine-1-carboximidamide]
  Ki: 1 to 10 µM

## CCCCCCCCCCc1ccc(CCCC(=N)N)cc1 [Compound 5, 4-(4-decylphenyl)butanimidamide]
[1]
  Ki: > 10 µM

## CCCCCCCCCCCCC/C=C/[C@@H](O)[C@@H](N)C(=N)N [Compound 2, (2S,3R,E)-2-amino-3-hydroxyoctadec-4-enimidamide]
[1]
  Ki: > 10 µM

## CCCCCCCCCCCCc1noc([C@@H]2CCCN2C(=N)N)n1 [Compound 40, (S)-2-(3-dodecyl-1,2,4-oxadiazol-5-yl)pyrrolidine-1-carboximidamide]
[1]
  Ki: > 10 µM

## N=C(N)N1CC[C@H]1c1nc(-c2ccc(-c3ccccc3)cc2)no1 [Compound 60, (S)-2-(3-([1,1′-biphenyl]-4-yl)-1,2,4-oxadiazol-5-yl)azetidine-1-carboximidamide]
  Ki: > 10 µM

## CCCCCCCCCCc1ccc(-c2noc(C3CN(C(=N)N)C3)n2)cc1 [Compound 67, 3-(3-(4-decylphenyl)-1,2,4-oxadiazol-5-yl)azetidine-1-carboximidamide]
[1]
  Ki: > 10 µM

## CCCCCCCCCCCc1cc(-c2nnc(C3(C(=N)N)CC3)o2)c(OC)cc1OC [Compound 22, 1-(5-(2,4-dimethoxy-5-undecylphenyl)-1,3,4-oxadiazol-2-yl)cyclopropanecarboximidamide]
[1]
  Ki: < 1 µM

## CCCCCCCCc1ccc([C@H]2CC[C@H](NC(=N)N)CC2)cc1 [Compound 34, 1-((1R,4R)-4-(4-octylphenyl)-cyclohexyl)guanidine]
  Ki: 1 to 10 µM

## CCCCCCCCCCCCc1ccc(C(=O)NNC(=N)N)cc1 [Compound 1, 2-(4-dodecylbenzoyl)hydrazine carboximidamide]
[1]
  Ki: > 10 µM

## N=C(N)N1CCC[C@H]1Cc1nc(-c2ccc(CS(=O)(=O)c3ccccc3)cc2)no1 [Compound 77, (S)-2-((3-(4-((phenylsulfonyl)methyl)phenyl)-1,2,4-oxadiazol-5-yl)methyl)pyrrolidine-1-carboximidamide]
[1]
  Ki: > 10 µM

## CCCCCCCCc1ccc(-c2noc([C@@H]3CCN3C(=N)NO)n2)cc1 [Compound 65, (S)-N-hydroxy-2-(3-(4-octylphenyl)-1,2,4-oxadiazol-5-yl)azetidine-1-carboximidamide]
[1]
  Ki: > 10 µM

## CCCCCCCCCCCCCCc1ccc(-c2noc([C@@H]3CCCN3C(=N)N)n2)cc1 [Compound 57, (S)-2-(3-(4-tetradecylphenyl)-1,2,4-oxadiazol-5-yl)pyrrolidine-1-carboximidamide]
[1]
  Ki: > 10 µM

## CCCCCCCCCCCCc1ccc(-c2coc(CC(=N)N)n2)cc1 [Compound 19, 2-(4-(4-dodecylphenyl)oxazol-2-yl)acetimidamide]
[1]
  Ki: > 10 µM

## CCCCCCCCc1ccc(-c2noc(C3(NC(=N)N)CC3)n2)cc1 [Compound 42, 1-(1-(3-(4-octylphenyl)-1,2,4-oxadiazol-5-yl)cyclopropyl)guanidine]
[1]
  Ki: > 10 µM

## CCCCCCCCc1ccc(-c2noc(CNC(=N)N)n2)cc1 [Compound 46, 1-((3-(4-octylphenyl)-1,2,4-oxadiazol-5-yl)methyl)guanidine]
  Ki: 1 to 10 µM

## CCCCCCCCc1ccc(CNC(=O)C2(NC(=N)N)CC2)cc1 [Compound 35, 1-guanidino-N-(4-octylbenzyl) cyclopropanecarboxamide]
[1]
  Ki: > 10 µM

## CCCCCCCCc1cccc(-c2noc(C[C@@H]3CCCN3C(=N)N)n2)c1 [Compound 74, (S)-2-((3-(3-octylphenyl)-1,2,4-oxadiazol-5-yl)methyl)pyrrolidine-1-carboximidamide]
[1]
  Ki: > 10 µM

## CCCCCCCCCCCCc1ccc(-c2noc(C3(NC(=N)N)CC3)n2)cc1 [Compound 44, 1-(1-(3-(4-dodecylphenyl)-1,2,4-oxadiazol-5-yl)cyclopropyl)guanidine]
[1]
  Ki: > 10 µM

## CCCCCCCCc1ccc(-c2noc(C3CN(C(=N)N)C3)n2)cc1 [Compound 66, 3-(3-(4-octylphenyl)-1,2,4-oxadiazol-5-yl)azetidine-1-carboximidamide]
  Ki: 1 to 10 µM

## CCCCCCCCCCCc1ccc(OC)c(-c2nnc(C3(C(=N)N)CC3)o2)c1 [Compound 24, 1-(5-(2-methoxy-5-undecylphenyl)-1,3,4-oxadiazol-2-yl)cyclopropanecarboximidamide]
[1]
  Ki: < 1 µM
